Consider 1 substance from patent publication US9078916B2, “Method for producing and using a copolymer of sodium carboxymethyl cellulose and gossypol” (Limited Liability Company “Nearmedic Plus”, priority 2010, dated 2015).

Entries after “also recorded” stand apart in the source; their conditions may differ.

In the data set the test system is 6-year children with autistic spectrum disorders and severe cognitive impairments. The experiment in a line: Complex therapy of 6-year children, copolymer tablets added to basic therapy with neuroleptics. It is filed as in vivo. The source says: The method can be used for the treatment of autistic disorders and cognitive impairments in 6-year children. A treatment regimen is selected by a specialist depending on the severity of a disease, condition and age of a patient. In particular, the treatment can be performed according to the following regimen: administration of a medicament 3 times per day for 5 days followed by the 5-day break. This ten-day cycle is repeated […]. The total duration of the treatment is 30 days. A dose of the active agent is 36 mg/day. Then, the course should be repeated.
The efficacy and safety of the use of sodium carboxymethyl cellulose polymer with a degree of substitution of 0.35 to 0.80 and gossypol, of formula (I) in a complex therapy of 6-year children with autistic spectrum disorders and severe cognitive impairments were studied. The children were administered with a medicament comprising a copolymer of sodium carboxymethyl cellulose with a degree of substitution of 0.35 to 0.80 and gossypol, of formula (I) (tablets containing 12 mg of the active agent, which composition is shown in Table 2) on the background of basic therapy with neuroleptics such as neuleptil, haloperidol, aminazine, teraligen, triphtazine, eglonil, azaleptin chlorprothixene. Antidepressants (e.g., anafranil) and anticonvulsants (finlepsin, trileptal, or topamax) were used in some cases. Neuroleptics, antidepressants and anticonvulsants were used in optimal therapeutic doses. […] When the therapy was supplemented with a medicament comprising a copolymer of sodium carboxymethyl cellulose with a degree of substitution of 0.35 to 0.80 and gossypol, of formula (I), the manifestations of encopresis and enuresis ceased, catatonic disorders decreased, cognitive functions improved, and speech appeared. In patients with mild to moderate autism, restricted repetitive behavior disappeared.

[1] abbreviates: patients with very severe autism, therapy supplemented with the medicament.

As to “sodium salt of copolymer of carboxymethyl cellulose with a degree of substitution of 0.35 to 0.80 and gossypol”, the “resistance to therapy with neuroleptics / psychotropic drugs” value (added to basic therapy, especially patients with very severe autism, 12 mg tablets) was “decreased; also recorded: elimination”. For the same substance, under “in vivo”, the “negative side effects on a patient” value is recorded as “does not have negative side effects”; the tolerability entry is given as “well tolerable”; the “toxic and allergic reactions” value is “not reported”. For the same substance, the restricted repetitive behavior result (patients with mild to moderate autism) was “disappeared”. Besides, under setting [1], the catatonic disorders entry is given as “decreased”; the “manifestations of encopresis and enuresis” value is “ceased”; the speech entry is reported as “appeared”. Moreover, under “therapy supplemented with the medicament”, the cognitive functions entry is recorded as “improved; also recorded: significant improvement”. Further, for the setting “when administering the medicament”, the “mental condition of the patients” value was “improved”.
